Measured values taken from patent EP0984967B1, “NAPHTHYRIDINE DERIVATIVES AND THEIR ANALOGUES INHIBITING CYTOMEGALOVIRUS” (BIOCHEM PHARMA INC, priority 1996, dated 1997).
Values after ≈ are worked out from the molar mass of the structure shown.

Assays:
Format in all cases: cell-based
HCMV virus = assay: CMV plaque reduction assay
Protocol: The anti-CMV activity of test compounds was evaluated in a plaque reduction assay as follows: In 12-well tissue culture dishes, 1.5X10E5 or Hs68 cells (human […] fibroblast cell line) were plated per well with 2 ml of DMEM 10% fetal bovine serum and incubated in 5% CO2/air at 37°C overnight or until cells were ready. The medium was then removed and the cells inoculated with 0.5 ml (containing 200 pfu/ml diluted in DMEM 2% FBS) of HCMV virus in each well. After adsorption at 37°C for 2 hours, the virus was removed and cell monolayers were overlaid (1ml) with DMEM 2% FBS containing test compounds at various concentrations. The cells were then incubated at 37°C for 8 days, and then fixed with one volume (1ml) of formaldehyde 8%/water or PBS 1X for 30 minutes. The formaldehyde solution was removed and the cell monolayers were stained with crystal violet 2%/EtOH 20% for a few seconds and then rinsed with water. Monolayers were examined for the presence of plaques under a microscope, the percentage of plaque reduction determined for each compound by comparison with the untreated cells (no test compound) and the 50% inhibitory concentration (IC50) established. Ganciclovir was used as a positive control. Note: DMEM medium contained 1% glutamine and 1% pen/strep

[1] = Cytotoxicity assay ([3H]-methyl thymidine incorporation, cell proliferation); settings: vero-34, hs-68 or wi-38; for CC50 at 48 h: 50% inhibitory concentration of cell proliferation, 48 hours with compound then 18 hours [3H]-methyl thymidine, cell line not given
Protocol: (§1) The cytotoxicity of test compounds was evaluated according to the following procedure: Flat bottom 96 well plates were plated with 5X10E3 Vero-34 cells/well and 1X10E4 Hs-68 or Wi-38 cells/well respectively and incubated overnight at 37°C and 5% CO2/air. After incubation, the supernatant medium was removed and replaced with test compound dilutions in 2% DMEM (150ul). The cells were then incubated 48 hours in a 5% CO2 incubator at 37°C. […] Cells were then collected onto a fiberglass filter (Printed Filtermat A 1450-421 Wallac) with a Tomtec cell harvester. Suspended cells were collected directly onto filter while for adherent cells, the medium was first removed, then the cells washed with PBS and trypsinized for 2-3 minutes (50µl trypsin/well) before collecting. Filters were dried for 1 hour at 37-40°C and then placed into bags (1450-microbeta # 1450-432 Wallac) with 4.5ml of Betascint and counts obtained with Microbeta 1450 Wallac (protocol 1). The percent of cell proliferation was determined by comparison to the control (no test compound) and thereby establishing 50% inhibitory concentration is established.

[2] = test system: Vero-34 cells, Hs-68 or Wi-38 cells; assay: as above; settings: 50% inhibitory concentration of cell proliferation, 48 hours with compound then 18 hours [3H]-methyl thymidine; cell line not given
Protocol: as §1

[3] = Human betaherpesvirus 5, 192 h, plaque reduction, HCMV in Hs68 cells (human foreskin fibroblast cell line), 8 days at 37°C

| IC50 (HCMV virus; Human betaherpesvirus 5, positive control tested in tandem with the compounds, plaque reduction assay) [µg/mL] | Molecule | IC50 (HCMV virus; [3]) [µg/mL] | CC50 at 48 h [1] [µg/mL] | CC50 [2] [µg/mL] | CC50 ([1]; positive control tested in tandem with the compounds, value varied between runs) [µg/mL] |
| --- | --- | --- | --- | --- | --- |
| – | C=CCNC(=O)c1ccc2cnccc2n1 [compound #24, (1,6)naphthyridine-2-carboxylic acid allylamide] | 5 to 10 (≈ 23.4 to 46.9 µM) | 10 to 100 (≈ 46.9 to 469 µM) | – | – |
| – | O=C(NCc1ccccc1Br)c1ccc2cnccc2n1 [compound #5, N-(2-bromobenzyl)-2-(1,6)naphthyridinecarboxamide] | 0.5 to 1 (≈ 1.46 to 2.92 µM) | > 100 | – | – |
| – | C[C@@H](NC(=O)Nc1ccc2cnccc2n1)c1ccccc1 [compound #51, 1-[(R)-α-methylbenzyl]-3-[1,6]naphthyridin-2-yl-urea] | 0.01 to 0.1 (≈ 0.0342 to 0.342 µM) | < 3.15 | – | – |
| – | O=C(NCc1ccccc1F)c1ccc2cnccc2n1 [compound #7, N-(2-fluorobenzyl)-2-(1,6)naphthyridinecarboxamide] | < 5 | ~100 (≈ 356 µM) | – | – |
| – | CC(C)Oc1ccccc1CNC(=S)c1ccc2cnccc2n1 [compound #40, [1,6]Naphthyridine-2-thiocarboxylic acid-2-isopropoxybenzylamine] | 0.1 to 1 (≈ 0.296 to 2.96 µM) | 12.5 to 25 (≈ 37 to 74.1 µM) | – | – |
| – | O=C(NCc1ccc(Cl)cc1)c1ccc2cnccc2n1 [compound #8, N-(4-chlorobenzyl)-2-[1,6]naphthyridinecarboxamide] | 1 to 10 (≈ 3.36 to 33.6 µM) | 6.25 to 10 (≈ 21 to 33.6 µM) | – | – |
| – | O=C(NCc1ccccc1Cl)c1ccc2cnccc2n1 [compound #4, N-(2-chlorobenzyl)-2-(1,6)naphthyridinecarboxamide] | 0.5 to 1 (≈ 1.68 to 3.36 µM) | ~100 (≈ 336 µM) | – | – |
| – | CC(C)(C)OC(=O)NCCCCNC(=O)Nc1ccc2cnccc2n1 [compound #48, 1-(N-boc-4-aminobutyl)-3-[1,6]naphthyridin-2-yl-urea] | 0.1 to 1 (≈ 0.278 to 2.78 µM) | 3.15 to 6.25 (≈ 8.76 to 17.4 µM) | – | – |
| – | O=C(NCc1ccccc1O)c1ccc2cnccc2n1 [compound #22, N-(2-hydroxybenzyl)-2-(1,6)naphthyridinecarboxamide] | < 5 | 25 to 100 (≈ 89.5 to 358 µM) | – | – |
| – | O=C(NCc1ccccc1)c1ccc2cnccc2n1 [compound #2, N-benzyl-2-(1,6)naphthyridinecarboxamide] | ~1 (≈ 3.8 µM) | ~50 (≈ 190 µM) | – | – |
| – | CSc1ccccc1CNC(=O)c1ccc2cnccc2n1 [compound #21, N-(2-methylthiobenzyl)-2-[1,6]naphthyridine carboxamide] | 1 to 10 (≈ 3.23 to 32.3 µM) | ~50 (≈ 162 µM) | – | – |
| – | Cl.NCCCCNC(=O)Nc1ccc2cnccc2n1 [compound #49, 1-(4-aminobutyl)-3-[1,6]naphthyridin-2-yl-urea hydrochloride] | 1 to 5 | 6.25 to 12.5 | – | – |
| – | Cc1ccccc1NC(=O)Nc1ccc2cnccc2n1 [compound 56, 1-(2-methyl-phenyl)-3-[1,6]naphthyridin-2-yl-urea] | – | > 100 | – | – |
| – | COc1cccc(CNC(=O)c2ccc3cnccc3n2)c1 [compound #12, N-(3-methoxybenzyl)-2-(1,6)naphthyridinecarboxamide] | < 5 | > 100 | – | – |
| – | COc1ccccc1CNC(=O)c1ccc2cncc(Br)c2n1 [compound #35, 8-bromo-[1,6]naphthyridine-2-carboxylic acid (2-methoxybenzylamine)] | ~0.01 (≈ 0.0269 µM) | ~12.5 (≈ 33.6 µM) | – | – |
| – | CCCCNC(=O)Nc1ccc2cnccc2n1 [compound #53, 1-butyl-3-[1,6]naphthyridin-2-yl-urea] | 0.1 to 1 (≈ 0.409 to 4.09 µM) | 2.5 to 5 (≈ 10.2 to 20.5 µM) | – | – |
| – | O=C(NCc1ccccn1)c1ccc2cnccc2n1 [compound #18, [1,6]naphthyridine-2-carboxylic acid (pyridine-2-ylmethyl) amide] | 5 to 25 (≈ 18.9 to 94.6 µM) | > 100 | – | – |
| – | COc1cccc(OC)c1CNC(=O)c1ccc2cnccc2n1 [compound #14, N-(2,6-dimethoxybenzyl)-2-(1,6)naphthyridinecarboxamide] | < 5 | > 100 | – | – |
| – | N-(2propoxybenzyl)-2-[1,6]naphthyridine-2-carboxamide [compound #26] | – | – | ~1.5 | – |

| IC50 (HCMV virus; Human betaherpesvirus 5, positive control tested in tandem with the compounds, plaque reduction assay) [µg/mL] | Molecule | IC50 (HCMV virus; [3]) [µg/mL] | CC50 at 48 h [1] [µg/mL] | CC50 [2] [µg/mL] | CC50 ([1]; positive control tested in tandem with the compounds, value varied between runs) [µg/mL] |
| --- | --- | --- | --- | --- | --- |
| 0.1 to 0.5 (≈ 0.392 to 1.96 µM) | Nc1nc(O)c2ncn(COC(CO)CO)c2n1 [ganciclovir, reference compound] | – | – | – | 10 to 200 (≈ 39.2 to 784 µM) |
| – | CCNc1ccccc1CNC(=O)c1ccc2cncc(Br)c2n1 [compound #33, 8-bromo-[1,6]naphthyridine-2-carboxylic acid (2-N-ethylaminobenzylamine)] | < 0.01 | 6.25 to 12.5 (≈ 16.2 to 32.4 µM) | – | – |
| – | O=C(NCc1ccccc1C(F)(F)F)c1ccc2cnccc2n1 [compound #13, N-(2-trifluoromethylbenzyl)-2-(1,6)naphthyridinecarboxamide] | < 5 | > 100 | – | – |
| – | CC(C)Oc1ccccc1CNC(=O)Nc1ccc2cnccc2n1 [compound #47, 1-(2-iso-propoxybenzyl)-3-[1,6]naphthyridin-2-yl-urea] | 0.01 to 0.1 (≈ 0.0297 to 0.297 µM) | 25 to 50 (≈ 74.3 to 149 µM) | – | – |
| – | COc1cccc(CNC(=S)c2ccc3cnccc3n2)c1 [compound #41, [1,6]Naphthyridine-2-thiocarboxylic acid-3-methoxybenzylamine] | 1 to 10 (≈ 3.23 to 32.3 µM) | 25 to 50 (≈ 80.8 to 162 µM) | – | – |
| – | CC(NC(=O)c1ccc2cnccc2n1)c1ccccc1 (centres unmarked) [compound #17, [1,6]naphthyridine-2-carboxylic acid (1-phenyl-ethyl) amide] | 0.1 to 1 (≈ 0.361 to 3.61 µM) | 25 to 50 (≈ 90.1 to 180 µM) | – | – |
| – | CCOc1ccccc1CNC(=O)c1ccc2cnccc2n1 [compound #9, N-(2-ethyloxybenzyl)-2-(1,6)naphthyridinecarboxamide] | ~0.1 (≈ 0.325 µM) | ~6.25 (≈ 20.3 µM) | – | – |
| – | C[C@H](NC(=O)Nc1ccc2cnccc2n1)c1ccccc1 [compound #50, 1-[(S)-α-methylbenzyl]-3-[1,6]naphthyridin-2-yl-urea] | 1 to 10 (≈ 3.42 to 34.2 µM) | 12.5 to 25 (≈ 42.8 to 85.5 µM) | – | – |
| – | O=C(NCc1ccc(Br)cc1)c1ccc2cnccc2n1 [compound #3, N-(4-bromobenzyl)-2-(1,6)naphthyridi necarboxamide] | 10 to 50 (≈ 29.2 to 146 µM) | 10 to 50 (≈ 29.2 to 146 µM) | – | – |
| – | CC(C)Oc1ccccc1NC(=O)Nc1ccc2cnccc2n1 [compound #46, 1-(2-iso-propoxy-phenyl)-3-[1,6]naphthyridin-2-yl-urea] | ~0.01 (≈ 0.031 µM) | ~25 (≈ 77.6 µM) | – | – |
| – | O=C(N[C@@H]1C[C@H]1c1ccccc1)c1ccc2cnccc2n1 (relative stereo) [compound #15, [1,6]naphthyridine-2-carboxylic acid (trans-2-phenyl-cyclopropyl)-amide] | 1 to 10 (≈ 3.46 to 34.6 µM) | ~25 (≈ 86.4 µM) | – | – |
| – | CC(C)Oc1ccccc1CNC(=O)c1ccc2cncc(-c3ccccn3)c2n1 [compound 57, 8-(2-pyridyl)-[1,6]naphthyridine-2-carboxylic acid (2-isopropoxybenzylamine)] | 0.1 to 1 (≈ 0.251 to 2.51 µM) | 6 to 12.5 (≈ 15.1 to 31.4 µM) | – | – |
| – | O=C(NCc1cccc(Br)c1)c1ccc2cnccc2n1 [compound #6, N-(3-bromobenzyl)-2-(1,6)naphthyridinecarboxamide] | 1 to 5 (≈ 2.92 to 14.6 µM) | ~50 (≈ 146 µM) | – | – |
| – | Nc1cccc(F)c1CNC(=O)c1ccc2cnccc2n1 [compound #16, N-(2-amino-6-fluorobenzyl)-2-[1,6]naphthyridinecarboxamide] | 1 to 10 (≈ 3.37 to 33.7 µM) | ~25 (≈ 84.4 µM) | – | – |
| – | O=C(NCC1CCCCC1)c1ccc2cnccc2n1 [compound #19] | 1 to 10 (≈ 3.71 to 37.1 µM) | 25 to 50 (≈ 92.8 to 186 µM) | – | – |
| – | COC(=O)c1ccccc1CNC(=O)c1ccc2cnccc2n1 [compound #23, N-(2-methoxycarbonylbenzyl)-2-(1,6)naphthyridinecarboxamide] | < 5 | > 100 | – | – |
| – | O=C(c1ccc2cnccc2n1)N1CCc2ccccc2C1 [compound #20, (3,4-dihydro-1h-isoquinolin-2-yl)-[1,6]naphthyridin-2-yl-methanone] | 5 to 25 (≈ 17.3 to 86.4 µM) | > 100 | – | – |
| – | Cc1ccccc1CNC(=O)c1ccc2cnccc2n1 [compound #1, N-(2-methylbenzyl)-2-(1,6)naphthyridinecarboxamide] | ~1 (≈ 3.61 µM) | 50 to 75 (≈ 180 to 270 µM) | – | – |
| – | CC(C)Oc1ccccc1CNC(=O)c1ccc2cncc(Br)c2n1 [compound #34, 8-bromo-[1,6]naphthyridine-2-carboxylic acid (2-isopropoxybenzylamine)] | 0.1 to 1 (≈ 0.25 to 2.5 µM) | ~12.5 (≈ 31.2 µM) | – | – |
